Values of other authors, collected in patent US5807979A, “Synthetic, three-dimensionally stabilized polypeptide mimics of HIV” (The Scripps Research Institute, priority 1995, dated 1998).

Legend:
[1] = fraction of the activity of parent EGF; cited from earlier work
malaria = settings: tested in humans; cited from earlier work

Substance	activity relative to that of the parent molecule [1]	effectiveness of vaccine in humans (malaria)
active fragment of epidermal growth factor (EGF), comprising amino acids 20-31: active fragment of epidermal growth factor (EGF), comprising amino acids 20-31 (CMYIEALDKYAC; Epidermal growth factor; UniProt P01133 990-1001, looked up, fragment)	about 10^-4	–
(Asn-Ala-Asn-Pro)3	–	only partially effective
